Source: the NIST ThermoML archive (doi:10.1021/je101178u)
“And” between values parts separate entries of the source, which are not always exact repeats. Equal values may be shown once. ± gives the expanded uncertainty stated by the source.

Settings: Fluid (supercritical or subcritical phases); for viscosity: vibrating wire; for mass density: Buoyancy - hydrostatic balance with magnetic suspension - one sinker

CC [ethane]
Settings	mass density	viscosity
307.15 K, 29063 kPa	–	0.07227 ± 0.00044 mPa·s
307.15 K, 29978 kPa	436.186 ± 1.3 kg/m3 and 436.185 ± 1.3 kg/m3	0.07317 ± 0.00045 mPa·s and 0.07325 ± 0.00045 mPa·s
307.15 K, 29979 kPa	436.187 ± 1.3 kg/m3	0.07323 ± 0.00045 mPa·s
307.15 K, 29980 kPa	436.189 ± 1.3 kg/m3	0.07314 ± 0.00045 mPa·s and 0.07319 ± 0.00045 mPa·s
423.15 K, 95.75 kPa	0.82018 ± 0.0028 kg/m3	0.01277 ± 7.7e-05 mPa·s
423.15 K, 95.83 kPa	0.82091 ± 0.0028 kg/m3	0.01276 ± 7.7e-05 mPa·s
423.15 K, 117.47 kPa	1.0068 ± 0.0031 kg/m3	0.01277 ± 7.7e-05 mPa·s
423.15 K, 117.64 kPa	1.0082 ± 0.0031 kg/m3	0.01277 ± 7.7e-05 mPa·s
423.15 K, 117.73 kPa	1.009 ± 0.0031 kg/m3	0.01277 ± 7.7e-05 mPa·s
423.15 K, 226.59 kPa	1.947 ± 0.0047 kg/m3	0.0128 ± 7.7e-05 mPa·s
423.15 K, 226.76 kPa	1.9485 ± 0.0047 kg/m3	0.0128 ± 7.7e-05 mPa·s
423.15 K, 459.37 kPa	3.9693 ± 0.0086 kg/m3	0.01284 ± 7.7e-05 mPa·s
423.15 K, 459.46 kPa	3.9701 ± 0.0086 kg/m3	0.01284 ± 7.7e-05 mPa·s
423.15 K, 691.62 kPa	6.0097 ± 0.013 kg/m3	0.0129 ± 7.8e-05 mPa·s
423.15 K, 691.95 kPa	6.0126 ± 0.013 kg/m3	0.01289 ± 7.8e-05 mPa·s
423.15 K, 915.95 kPa	8.0024 ± 0.017 kg/m3	0.01294 ± 7.8e-05 mPa·s
423.15 K, 916.03 kPa	8.0031 ± 0.017 kg/m3	0.01294 ± 7.8e-05 mPa·s
423.15 K, 1136.5 kPa	9.9828 ± 0.021 kg/m3	0.01298 ± 7.8e-05 mPa·s
423.15 K, 1136.7 kPa	9.9843 ± 0.021 kg/m3	0.01298 ± 7.8e-05 mPa·s
423.15 K, 1357.6 kPa	11.99 ± 0.025 kg/m3	0.01303 ± 7.8e-05 mPa·s
423.15 K, 1357.9 kPa	11.993 ± 0.025 kg/m3	0.01303 ± 7.8e-05 mPa·s
423.15 K, 1576.5 kPa	13.999 ± 0.03 kg/m3	0.01306 ± 7.9e-05 mPa·s and 0.01307 ± 7.9e-05 mPa·s
423.15 K, 1794.4 kPa	16.02 ± 0.034 kg/m3	0.01312 ± 7.9e-05 mPa·s
423.15 K, 1795 kPa	16.025 ± 0.034 kg/m3	0.01311 ± 7.9e-05 mPa·s
423.15 K, 2007.1 kPa	18.014 ± 0.038 kg/m3	0.01317 ± 7.9e-05 mPa·s
423.15 K, 2007.2 kPa	18.015 ± 0.038 kg/m3	0.01317 ± 7.9e-05 mPa·s
423.15 K, 2209.1 kPa	19.928 ± 0.042 kg/m3	0.01322 ± 8e-05 mPa·s
423.15 K, 2209.2 kPa	19.929 ± 0.042 kg/m3	0.01322 ± 7.9e-05 mPa·s
423.15 K, 3243 kPa	30.033 ± 0.064 kg/m3	0.01352 ± 8.1e-05 mPa·s
423.15 K, 3244.5 kPa	30.048 ± 0.064 kg/m3	0.01351 ± 8.1e-05 mPa·s
423.15 K, 4164.4 kPa	39.494 ± 0.086 kg/m3	0.01382 ± 8.3e-05 mPa·s
423.15 K, 4164.5 kPa	39.495 ± 0.086 kg/m3	0.01382 ± 8.3e-05 mPa·s
423.15 K, 4551.5 kPa	43.602 ± 0.1 kg/m3	0.01395 ± 8.4e-05 mPa·s
423.15 K, 4555.3 kPa	43.642 ± 0.1 kg/m3	–
